Assay results from PMC8910697, “Development of VPC-70619, a Small-Molecule N-Myc Inhibitor as a Potential Therapy for Neuroendocrine Prostate Cancer” (International Journal of Molecular Sciences, 2022).

Experiments:
Format in all cases: cell-based
[1] = test system: IMR32 cells; experiment: Cell viability (CellTiter-Glo), IMR32; conditions: Homo sapiens, IMR-32
Description: (§1) The 54 compounds were tested at 10 µM for their inhibition of the IMR32 human neuroblastoma cell line, in which the MYCN gene is amplified and actively expressed (Table 3). HO15.19 cell line (Myc-negative) was used in parallel as a compound specificity control.
(§2) Viability of N-Myc positive (IMR32and NCI-H660) and negative (HO15.19) cells were determined using the CellTiter-Glo Luminescent Cell Viability Assay (Promega cat. G7570) (Madison, WI, USA). Cells were seeded into a 96-well white plate with a clear bottom: 10,000 cells per well for the IMR32 cells cultured in EMEM supplemented with 10% FBS, 2000 HO15.19 cells per well in Eagle’s minimum essential medium (EMEM) supplemented with 10% FBS, and 2000 cells per well for the NCI-H660 neuroendocrine cells cultured in RPMI supplemented 5% FBS, 1% Insulin-Transferrin-Selenium (Thermo Fisher, 41400-045), 10nM b-estradiol (Sigma, E8875), 10nM hydrocortisone (Sigma H0888) and 1% matrigel. Following 24 h incubation, the cells were treated with serial dilutions of the derivatives along with the respective parental compound starting at 25 μM for 72 h. Cell Titer Glo was added to each well at a ratio of 1:1 and incubated on a shaker at RT for 2 min. Luminescence and IC50 was measured with the TECAN InfiniteM200 plate reader (Männedorf, Switzerland).

[2] = test system: N-Myc-Max transcription activity (LNCaP-NMYC cells); experiment: Myc transcription assay (Cignal Myc reporter, luciferase) in LNCaP-NMYC cells; conditions: LNCaP-NMYC; for transcription inhibition activity (in words): screened at 10 µM and 5 µM
Description: To determine the optimal substitutions on the free phenyl ring, we used the active scaffold for a second substructure search against the ZINC15 database to identify a set of 181 analogues for further validation (VPC-70617 to -70799, presented in Supplementary Table S1). Compounds were tested for their inhibition of a N-Myc-Max luciferase transcription activity assay at 5 and 10 µM Figure 2a. Herein, we inspected all the proposed substitutions on the scaffold to discern the features required to construct a possible SAR model for inhibitors targeting N-Myc-Max/DBD complex (Figure 2b).
LNCaP-NMYC cells were transfected using TransIT-2020 transfection reagents per the manufacturer’s protocol. Cells were plated at a density of 10,000 cells per well of a 96-well plate. Following 24 h treatment with 5 µM or 10 µM of the compounds, the Myc reporter activity was measured using the Cignal Myc Reporter Assay Kit from Qiagen (#336841) (Hilden, Germany) per the manufacturer’s instructions.

[3] = test system: HO15.19 cells; experiment: Cell viability counter-screen (CellTiter-Glo), Myc-negative HO15.19; conditions: Rattus norvegicus, HO15.19, 10 µM; Myc-negative specificity control
Description: as §1, §2

SMILES | inhibition at 10 µM [1] [%] | transcription inhibition activity (in words) [2] | inhibition at 10 µM [3] [%] | transcription inhibition activity at 5 µM (in words) ([2]; 5 µM)
N#Cc1ccc(NNC(=O)c2ccc(F)c(I)c2)c(C(F)(F)F)c1 [compound 70726] | 75.6 | strong increase in inhibition activity | 66.2 | 
N#Cc1ccc(NNC(=O)c2cc(C(F)(F)F)ccc2F)c(C(F)(F)F)c1 [compound 70769] | 32.2 | high transcription inhibition activity | 28.2 | 
N#Cc1ccc(NNC(=O)c2cc(Cl)c(N)c(Cl)c2)c(C(F)(F)F)c1 [compound 70695] | 77.1 | better inhibition activity | 41.2 | 
N#Cc1ccc(NNC(=O)c2cc(Cl)cc(C(F)(F)F)c2)c(C(F)(F)F)c1 [compound 70722] | 94.7 | very strong transcription inhibition | 79.3 | 
N#Cc1ccc(NNC(=O)c2cc(F)c(Cl)cc2Cl)c(C(F)(F)F)c1 [compound 70730] | 87.5 | recovered the inhibition activity | 77.1 | 
N#Cc1ccc(NNC(=O)c2cc(C(F)(F)F)cc(C(F)(F)F)c2)c(C(F)(F)F)c1 [compound 70756] | 95.7 | better inhibition activity | 84.1 | 
N#Cc1ccc(NNC(=O)c2ccc(Cl)c(F)c2)c(C(F)(F)F)c1 [compound 70621] | 98.8 | good inhibition at both concentrations tested | 68.6 | 
N#Cc1ccc(NNC(=O)c2cc(Cl)cc([N+](=O)[O-])c2)c(C(F)(F)F)c1 [compound 70761] | 93.3 | better inhibition activity | 81 | 
N#Cc1ccc(NNC(=O)c2cc(Cl)ccc2O)c(C(F)(F)F)c1 [compound 70640] | 93.5 | better inhibition activity | 76.7 | 
N#Cc1ccc(NNC(=O)c2ccc(Br)c(Cl)c2)c(C(F)(F)F)c1 [compound 70635] | 7.5 | strong increase in inhibition activity | 11.8 | 
N#Cc1ccc(NNC(=O)c2ccc([N+](=O)[O-])cc2)c(C(F)(F)F)c1 [compound 70663] | 28.9 | maintained good transcription inhibition activity | 7.9 | 
N#Cc1ccc(NNC(=O)c2cc(F)c(F)cc2Cl)c(C(F)(F)F)c1 [compound 70659] | 31 | strong increase in inhibition activity | 31.5 | 
N#Cc1ccc(Cl)c(C(=O)NNc2ccc(C#N)cc2C(F)(F)F)c1 [compound 70698] | 35.4 | high transcription inhibition activity | 27.3 | 
N#Cc1ccc(NNC(=O)c2cc(F)c(F)c(F)c2)c(C(F)(F)F)c1 [compound 70686] | 82.2 | strong increase in inhibition activity | 75.8 | 
N#Cc1ccc(NNC(=O)c2cc(Cl)cc(Br)c2)c(C(F)(F)F)c1 [compound 70650] | 92.1 | very strong transcription inhibition | 80.2 | 
N#Cc1ccc(NNC(=O)c2ccc(SC(F)(F)F)cc2)c(C(F)(F)F)c1 [compound 70658] | 46.9 | active | 57.2 | 
N#Cc1ccc(NNC(=O)c2ccc(F)c(Br)c2)c(C(F)(F)F)c1 [compound 70734] | 86.5 | strong increase in inhibition activity | 77.8 | 
N#Cc1ccc(NNC(=O)c2cc(Cl)cc(Cl)c2)c(C(F)(F)F)c1 [compound 70652] | 92.5 | very strong transcription inhibition | 80.7 | 
N#Cc1ccc(NNC(=O)c2cc(F)c(Cl)cc2F)c(C(F)(F)F)c1 [compound 70741] | 16.4 | recovered the inhibition activity | 14.5 | 

SMILES | inhibition at 10 µM [1] [%] | transcription inhibition activity (in words) [2] | inhibition at 10 µM [3] [%] | transcription inhibition activity at 5 µM (in words) ([2]; 5 µM)
N#Cc1ccc(NNC(=O)c2cc(OC(F)F)cc(OC(F)F)c2)c(C(F)(F)F)c1 [compound 70792] | 84.9 | maintained good transcription inhibition activity | 79.5 | 
COc1cc(Cl)cc(C(=O)NNc2ccc(C#N)cc2C(F)(F)F)c1 [compound 70700] | 60.5 | better inhibition activity | 42 | 
N#Cc1ccc(NNC(=O)c2ccc(F)c(C#N)c2)c(C(F)(F)F)c1 [compound 70696] | 15.1 | strong increase in inhibition activity | 13.2 | 
N#Cc1ccc(NNC(=O)c2cccc(I)c2)c(C(F)(F)F)c1 [compound 70703] | 18.5 | better inhibition activity | 13.5 | 
N#Cc1ccc(NNC(=O)c2ccc(C(F)(F)F)cc2Cl)c(C(F)(F)F)c1 [compound 70704] | 10.6 | strong increase in inhibition activity | 13.6 | 
N#Cc1ccc(NNC(=O)c2ccc(I)c(F)c2)c(C(F)(F)F)c1 [compound 70742] | 26.1 | better inhibition activity | 71.8 | 
N#Cc1ccc(NNC(=O)c2ccc(Cl)c(Br)c2)c(C(F)(F)F)c1 [compound 70622] | 99.4 | good inhibition at both concentrations tested | 36.4 | 
N#Cc1ccc(NNC(=O)c2ccc(F)c(C(F)(F)F)c2)c(C(F)(F)F)c1 [compound 70647] | 88.6 | strong increase in inhibition activity | 70.9 | 
N#Cc1ccc(NNC(=O)c2ccc(C(F)(F)F)c(Cl)c2)c(C(F)(F)F)c1 [compound 70705] | 60.7 | good inhibition at both concentrations tested | 61.8 | 
N#Cc1ccc(NNC(=O)c2c(O)cc(Cl)cc2Cl)c(C(F)(F)F)c1 [compound 70719] | 95 | recovered the inhibition activity | 76.5 | 
N#Cc1ccc(NNC(=O)c2cc(Cl)cc(F)c2Br)c(C(F)(F)F)c1 [compound 70776] | 27.4 | high transcription inhibition activity | 26.1 | 
COc1cc(C(=O)NNc2ccc(C#N)cc2C(F)(F)F)ccc1Cl [compound 70685] | 24.7 |  | 15.2 | recovered the activity
N#Cc1ccc(NNC(=O)c2ccc(Cl)cc2O)c(C(F)(F)F)c1 [compound 70633] | 93.6 | activity was maintained | 77 | 
CC(C)(c1ccc(C(=O)NNc2ccc(C#N)cc2C(F)(F)F)cc1)C(F)(F)F [compound 70733] | 57.4 | active | 57.8 | 
Cc1cc(C(=O)NNc2ccc(C#N)cc2C(F)(F)F)cc(C)c1F [compound 70679] | 1.1 | strong increase in inhibition activity | 7.3 | 
N#Cc1ccc(NNC(=O)c2ccc(Br)c(F)c2)c(C(F)(F)F)c1 [compound 70743] | 38.7 | strong increase in inhibition activity | 74.9 | 
N#Cc1ccc(NNC(=O)c2ccc(C(F)(F)F)c(F)c2)c(C(F)(F)F)c1 [compound 70693] | 22.4 | strong increase in inhibition activity | 0.2 | 
N#Cc1ccc(NNC(=O)c2cc(F)c(Br)c(Cl)c2)c(C(F)(F)F)c1 [compound 70775] | 62.4 | strong increase in inhibition activity | 65.1 | 
